Each structure is given as a SMILES string.

The compound `Cc1noc(-c2ccccc2)c1/C=C/C(=O)O` [Example 136, (E)-3-(3-methyl-5-phenyl-4-isoxazolyl)propenoic acid] returned a melting point of 173 to 174 °C.

Turning to `COc1ccc(-c2oncc2CCC(=O)O)cc1OC` [Example 100, 3-[5-(3,4-dimethoxyphenyl)-4-isoxazolyl]propionic acid], the melting point was 169 to 170 °C.

As for `O=C(O)CCc1c(-c2ccccc2)noc1-c1ccccc1` [Example 146, 3-[3,5-diphenyl-4-isoxazolyl]propionic acid], the melting point is 152 to 153 °C.

Turning to `CSc1ccc(-c2oncc2CCC(=O)O)cc1` [Example 103, 3-[5-(4-methylthiophenyl)-4-isoxazolyl]propionic acid], the melting point lay in the range of 124 to 125 °C.

`O=C(O)CCc1cnoc1-c1ccc([N+](=O)[O-])cc1` [Example 80, 3-[5-(4-nitrophenyl)-4-isoxazolyl]propionic acid] returned a melting point of 204 to 205 °C.

`NC(=O)CCc1conc1-c1ccc(Cl)cc1` [Example 18, 3-[3-(4-chlorophenyl)-4-isoxazolyl]propionamide] showed a melting point of 158 to 159 °C.

On to `O=C(O)CCc1cnoc1-c1ccc(-c2ccccc2)cc1` [Example 131, 3-[5-(4-phenylphenyl)-4-isoxazolyl]propionic acid], for which the melting point is 94 to 95 °C.

For the compound `O=C(O)CCc1cnoc1-c1ccc(F)cc1` [Example 11, 3-[5-(4-fluorophenyl)-4-isoxazolyl]propionic acid], the melting point was 126 to 127 °C.

`COC(=O)CCc1cnoc1-c1ccc(F)cc1F` [Example 61, methyl 3-[5-(2,4-difluorophenyl)-4-isoxazolyl]propionate] yielded a melting point of 40 to 41 °C.

`O=C(O)CCc1cnoc1-c1ccc(Cl)c(Br)c1` [Example 6, 3-[5-(3-bromo-4-chlorophenyl)-4-isoxazolyl]propionic acid] returned a melting point of 177 to 180 °C.

The compound `Cc1cc(-c2oncc2CCCO)ccc1Cl` [Example 97, 3-[5-(4-chloro-3-methylphenyl)-4-isoxazolyl]propan-1-ol] showed a melting point of 50 to 51 °C.

Take `O=C(O)CCc1cnoc1-c1cc(Cl)cc(Cl)c1` [Example 74, 3-[5-(3,5-dichlorophenyl)-4-isoxazolyl]propionic acid]: the melting point was in the range of 143 to 144 °C.

`COC(=O)CCc1cnoc1-c1ccc(Cl)s1` [Example 65, methyl 3-[5-(5-chloro-2-thienyl)-4-isoxazolyl]propionate] gave a melting point of 34 to 35 °C.

`NC(=O)/C=C/c1cnoc1-c1ccccc1` [Example 25, (E)-3-(5-phenyl-4-isoxazolyl)propenamide] displayed a melting point of 194 to 196 °C.

In turn, `O=C(O)CCc1cnoc1-c1ccc(Cl)cc1Cl` [Example 69, 3-[5-(2,4-dichlorophenyl)-4-isoxazolyl]propionic acid] displayed a melting point of 106 to 107 °C.

Compound `COC(=O)CCc1cnoc1-c1cc(Cl)c(Cl)s1` [Example 124, methyl 3-[5-(4,5-dichloro-2-thienyl)-4-isoxazolyl]propionate] had a melting point of 49 to 50 °C.

On to `O=C(O)CCc1conc1-c1ccc(C(F)(F)F)cc1` [Example 140, 3-[3-(4-trifluoromethylphenyl)-4-isoxazolyl]propionic acid], for which the melting point lay within 173 to 174 °C.

Take `CSc1ccc(-c2oncc2CCCO)cc1` [Example 105, 3-[5-(4-methylthiophenyl)-4-isoxazolyl]propan-1-ol]: the melting point was 54 to 55 °C.

The compound `O=C(O)CCc1conc1-c1ccc(Cl)c(F)c1` [Example 117, 3-[3-(4-chloro-3-fluorophenyl)-4-isoxazolyl]propionic acid] came in with a melting point of 148 to 149 °C.

Compound `O=C(O)CCc1conc1-c1ccc(F)c(Br)c1` [Example 125, 3-[3-(3-bromo-4-fluorophenyl)-4-isoxazolyl]propionic acid] gave a melting point of 151 to 152 °C.

In turn, `Cc1ccc(-c2oncc2CCC(=O)O)cc1` [Example 12, 3-[5-(4-methylphenyl)-4-isoxazolyl]propionic acid] displayed a melting point of 121 to 122 °C.

On to `CCOP(=O)(O)Cc1ccc(NC(=O)CCc2cnoc2-c2ccccc2)cc1`, for which the melting point lay within 80 to 82 °C.

Regarding `Cc1onc(-c2ccccc2Cl)c1CCC(=O)O` [Example 147, 3-[3-(2-chlorophenyl)-5-methyl-4-isoxazolyl]propionic acid], the melting point lay within 79 to 81 °C.

`O=C(O)/C=C/c1cnoc1-c1ccccc1` [Example 24, (E)-3-(5-phenyl-4-isoxazolyl)propenoic acid] returned a melting point of 197 to 199 °C.

Turning to `Cc1noc(-c2ccccc2)c1CCC(N)=O` [Example 28, 3-(3-methyl-5-phenyl-4-isoxazolyl)propionamide], the melting point is 149 to 151 °C.

In turn, `COC(=O)CCc1cnoc1-c1ccc(C(F)(F)F)cc1` [Example 60, methyl 3-[5-(4-trifluoromethylphenyl)-4-isoxazolyl]propionate] came in with a melting point of 68 to 69 °C.

On to `O=C(O)CCc1cnoc1-c1cc(Cl)ccc1Cl` [Example 98, 3-[5-(2,5-dichlorophenyl)-4-isoxazolyl]propionic acid], for which the melting point lay in the range of 103 to 104 °C.

`Cc1onc(-c2cccc(C(F)(F)F)c2)c1CCC(=O)O` [Example 145, 3-[5-methyl-3-(3-trifluoromethylphenyl)-4-isoxazolyl]propionic acid]: the melting point lay in the range of 63 to 64 °C.

In the case of `O=C(O)CCc1conc1-c1ccc(Cl)cc1` [Example 5, 3-[3-(4-chlorophenyl)-4-isoxazolyl]propionic acid], the melting point lay in the range of 149 to 150 °C.

`CS(=O)(=O)c1ccc(-c2oncc2CCCO)cc1` [Example 106, 3-[5-(4-methylsulfonylphenyl)-4-isoxazolyl]propan-1-ol] had a melting point of 125 to 126 °C.

On to `COc1ccc(-c2oncc2CCC(=O)O)cc1` [Example 13, 3-[5-(4-methoxyphenyl)-4-isoxazolyl]propionic acid], for which the melting point lay within 101 to 102 °C.

The compound `O=C(O)CCc1conc1-c1ccc(F)c(Cl)c1` [Example 114, 3-[3-(3-chloro-4-fluorophenyl)-4-isoxazolyl]propionic acid] displayed a melting point of 140 to 141 °C.

In turn, `Cc1onc(-c2ccc(Cl)cc2)c1CCC(=O)O` [Example 141, 3-[3-(4-chlorophenyl)-5-methyl-4-isoxazolyl]propionic acid] returned a melting point of 187 to 188 °C.

`O=C(O)CCc1cnoc1-c1ccc(F)cc1F` [Example 59, 3-[5-(2,4-difluorophenyl)-4-isoxazolyl]propionic acid] gave a melting point of 125 to 126 °C.

As to `O=C(O)CCc1conc1-c1ccc(-c2ccccc2)cc1` [Example 57, 3-[3-(4-phenylphenyl)-4-isoxazolyl]propionic acid], the melting point fell in the range of 169 to 170 °C.

For the compound `O=C(O)CCc1conc1-c1ccc(Cl)c(Cl)c1` [Example 111, 3-[3-(3,4-dichlorophenyl)-4-isoxazolyl]propionic acid], the melting point fell in the range of 181 to 182 °C.

`O=C(CCc1cnoc1-c1ccccc1)Nc1ccc(CP(=O)(O)O)cc1` [Example 413 (byproduct), 3-(5-Phenyl-4-isoxazolyl)-N-[4-(phosphonomethyl)phenyl]propionamide] had a melting point of 162 to 164 °C.

`O=C(O)CCc1cnoc1-c1ccc2c(c1)OCO2` [Example 89, 3-[5-(1,3-benzodioxol-5-yl)-4-isoxazolyl]propionic acid] yielded a melting point of 150 to 151 °C.

`C[S+]([O-])c1ccc(-c2oncc2CCCO)cc1` (stereo not shown) [Example 107, 3-[5-(4-methylsulfinylphenyl)-4-isoxazolyl]propan-1-ol] returned a melting point of 73 to 74 °C.

The compound `Cc1onc(-c2ccc(C(F)(F)F)cc2)c1CCC(=O)O` [Example 144, 3-[5-methyl-3-(4-trifluoromethylphenyl)-4-isoxazolyl]propionic acid] yielded a melting point of 138 to 139 °C.

`CCOP(=O)(Cc1ccc(NC(=O)CCc2cnoc2-c2ccc(F)cc2)cc1)OCC` yielded a melting point of 134 to 135 °C.

The compound `O=C(O)CCc1cnoc1-c1ccc(F)c(Br)c1` [Example 128, 3-[5-(3-bromo-4-fluorophenyl)-4-isoxazolyl]propionic acid] came in with a melting point of 136 to 137 °C.

In turn, `O=C(O)CCc1cnoc1-c1cccc(Cl)c1` [Example 86, 3-[5-(3-chlorophenyl)-4-isoxazolyl]propionic acid] displayed a melting point of 110 to 111 °C.

For `CCNC(=O)/C=C/c1cnoc1-c1ccccc1` [Example 27, (E)-N-ethyl-3-(5-phenyl-4-isoxazolyl)propenamide], the melting point lay within 156 to 157 °C.

Turning to `Cc1cc(-c2oncc2CCC(=O)O)ccc1Cl` [Example 95, 3-[5-(4-chloro-3-methylphenyl)-4-isoxazolyl]propionic acid], the melting point fell in the range of 158 to 159 °C.

For `CCc1onc(-c2ccc(Cl)cc2)c1CCC(=O)O` [Example 142, 3-[3-(4-chlorophenyl)-5-ethyl-4-isoxazolyl]propionic acid], the melting point was in the range of 164 to 165 °C.

For `O=C(O)CCc1cnoc1-c1ccccc1` [Example 7, 3-(5-phenyl-4-isoxazolyl)propionic acid], the melting point lay within 90 to 91 °C.

The compound `O=C(O)CCc1cnoc1-c1ccc(OC(F)(F)F)cc1` [Example 1, 3-[5-(4-trifluoromethoxyphenyl)-4-isoxazolyl]propionic acid] had a melting point of 116 to 118 °C.

On to `OCCCc1cnoc1-c1ccc(C(F)(F)F)cc1` [Example 62, 3-[5-(4-trifluoromethylphenyl)-4-isoxazolyl]propan-1-ol], for which the melting point was 85 to 86 °C.

Compound `O=C(O)CCc1c(-c2ccccc2)noc1O` [Example 143, 3-[5-hydroxy-3-phenyl-4-isoxazolyl]propionic acid] displayed a melting point of 183 to 184 °C.

`CCNC(=O)CCc1cnoc1-c1ccccc1` [Example 23, N-ethyl-3-(5-phenyl-4-isoxazolyl)propionamide] yielded a melting point of 75 to 76 °C.

`NC(=O)CCc1cnoc1-c1ccccc1` [Example 22, 3-(5-phenyl-4-isoxazolyl)propionamide] yielded a melting point of 151 to 152 °C.

One may read the melting point as the temperature, or range, at which the solid turns liquid.
